From patent publication US12226395B2, “Composition for preventing or treating neurodegenerative diseases, containing diterpene-based compound” (KOREA RESEARCH INSTITUTE OF BIOSCIENCE AND BIOTECHNOLOGY, priority 2017, dated 2025)
Like-named read-outs stand apart in the source and are kept apart here.

Key:
Type in all cases: cell-based
[1] = test system: nitric oxide production in microglia BV-2 cells; test: Inhibition of nitric oxide production in LPS-treated microglia BV-2 cells (Griess reagent); details: Mus musculus
Excerpt: The death of cranial nerve cells due to an inflammatory reaction in a microglia cell has been reported as one of the main causes of degenerative brain diseases such as dementia and Parkinson's disease. (Sarkar S et al., Neurotoxicology, 44, 250-262 (2014); Bower J H et al., Neurology, 67, 494-496 (2006)). Accordingly, the inhibition activity on nitric oxide production, a representative inflammatory factor, was investigated for the compounds isolated from Example 2 in a microglia. Specifically, microglia BV-2 cells were put into a 96-well plate at 5×10^4 cells/well, and cultured for 2 days, followed by incubation with LPS ([…]) for 24 hours with the compound isolated in Example 2 above. The culture supernatant was measured for absorbance at 540 nm using the Griess reagent to quantify nitrite to investigate the amount of nitric oxide production. Minocyline was used as a positive control.

Nurr1 [2] = target: T1, Nurr1 (Homo sapiens, UniProt P43354); test: Nurr1 activity, luciferase reporter analysis in transfected BE(2)C cells; details: for Nurr1 activity (luciferase), multiple of 0.1% DMSO control: BE(2)C cells, 20 hours
T1 construct: 3 types of plasmid DNA, including DNA containing Nurr1-LBD and DNA with β-galactosidase, were transfected into BE(2)C cells; expressed in transfected cells; host or cells: BE(2)C cells

Nurr1 [3] = target: T1, Nurr1; test: as above; details: for Nurr1 activity (luciferase), multiple of 0.1% DMSO control: BE(2)C cells, 20 hours; remark: listed apart in the source
Excerpt: As in Example 2, Nurr1 activity according to the concentration of the diterpene isolated from the extract of Daphne genkwa was confirmed through luciferase analysis.
Specifically, after synthesizing a vector in which the gene having the nucleotide sequence (5′-CTCGGAGGACAGTACTCCG-3 SEQ ID NO:1) to which the GLA4 gene can bind is repeated 8 times to the reporter gene, luciferase, is synthesized, 3 types of plasmid DNA, including DNA containing Nurr1-LBD and DNA with β-galactosidase, were transfected into BE(2)C cells. After 6 hours, the compounds 1 to 10 separated in Example 2 were treated according to the concentrations in Table 1 below. The cells thus treated were cultured in a 5% carbon dioxide incubator at 37° C. for 20 hours, and then luciferase analysis was performed. As a control, 0.1% DMSO was used, and at this time, the activity was increased by multiple, and Amodiaquine was used as a positive control.

[4] = BV-2 cells, LPS 24 hours, nitrite by Griess reagent, read-out: IC50, inhibition of nitric oxide production (Table 4)
[5] = High concentration = 1 μM (Table 1)
[6] = Low concentration = 0.01 μM (Table 1)
[7] = Mid concentration = 0.1 μM (Table 1)
[8] = High concentration = 10 μM (Table 1)
[9] = Low concentration = 0.1 μM (Table 1)
[10] = Mid concentration = 1 μM (Table 1)

T1 sequence (P43354 360-595 limits assumed): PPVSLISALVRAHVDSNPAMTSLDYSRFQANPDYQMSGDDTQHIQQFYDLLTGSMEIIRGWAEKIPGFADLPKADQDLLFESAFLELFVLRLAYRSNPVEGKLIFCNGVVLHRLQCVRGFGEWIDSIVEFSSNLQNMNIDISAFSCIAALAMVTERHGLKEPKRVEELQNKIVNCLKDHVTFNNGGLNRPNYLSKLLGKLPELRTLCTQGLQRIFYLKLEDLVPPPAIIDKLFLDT

| SMILES | IC50 [1, 4] [nM] | Nurr1 activity (luciferase), multiple of 0.1% DMSO control (Nurr1 [3]; [8]) | Nurr1 activity (luciferase), multiple of 0.1% DMSO control (Nurr1 [3]; [9]) | Nurr1 activity (luciferase), multiple of 0.1% DMSO control (Nurr1 [3]; [10]) | further results |
| --- | --- | --- | --- | --- | --- |
| CN(C)c1ccc(O)c2c1C[C@H]1C[C@H]3[C@H](N(C)C)C(O)=C(C(N)=O)C(=O)[C@@]3(O)C(O)=C1C2=O [Minocycline, reference compound] | 21300 ± 480 |  |  |  |  |
| C=C(C)[C@]12C[C@@H](C)[C@@]34O[C@](c5ccccc5)(O[C@@H]1C3[C@@H]1O[C@]1(CO)[C@@H](O)[C@@]1(O)C4C[C@H](C)[C@@H]1OC(=O)/C=C/C=C/CCCCC)O2 (stereo partly drawn) [compound 12, (2S,3aR,3cS,4aR,5S,5aS,6S,7S,8bR,9R,10aR)-5,5a-dihydroxy-4a-(hydroxymethyl)-7,9-dimethyl-2-phenyl-10a-(prop-1-en-2-yl)dodecahydro-6H-2,8b-epoxyoxireno[2″,3″:6′,7′]azuleno[5′,4′:3,4]benzo[1,2-d][1,3]dioxol-6-yl (2E,4E)-deca-2,4-dienoate] |  |  |  |  | IC50 ([1]; BV-2 cells, LPS 24 hours, nitrite by Griess reagent, read-out: IC50, inhibition of nitric oxide production (Table 5)): 2300 nM; Nurr1 activity (Table 3), relative to control treatment (Nurr1 [2]; 0.03 μM): 1.4 ± 0.18; Nurr1 activity (Table 3), relative to control treatment (Nurr1 [2]; 0.1 μM): **1.29 ± 0.04; Nurr1 activity (Table 3), relative to control treatment (Nurr1 [2]; 0.3 μM): *1.33 ± 0.06; Nurr1 activity (Table 3), relative to control treatment (Nurr1 [2]; 1 μM): *1.62 ± 0.21 |
| C=C(C)[C@@]12O[C@@]3(c4ccccc4)O[C@@H]1C1[C@@H]4O[C@]4(CO)[C@@H](O)[C@]4(O)C(=O)C(C)=CC4[C@@]1(O3)[C@H](C)[C@H]2OC(C)=O (stereo partly drawn) [Formula 1, (2S,3aR,3cS,4aR,5S,5aS,8bR,9R,10R,10aS)-5,5a-dihydroxy-4a-(hydroxymethyl)-7,9-dimethyl-6-oxo-2-phenyl-10a-(prop-1-en-2-yl)-3a,3b,3c,4a,5,5a,8a,9,10,10a-decahydro-6H-2,8b-epoxyoxireno[2″,3″:6′,7′]azuleno[5′,4′:3,4]benzo[1,2-d][1,3]dioxol-10-yl acetate] | 370 ± 150 |  |  |  | Nurr1 activity (luciferase), multiple of 0.1% DMSO control (Nurr1 [3]; [5]): 1.7; Nurr1 activity (luciferase), multiple of 0.1% DMSO control (Nurr1 [3]; [6]): 1.0; Nurr1 activity (luciferase), multiple of 0.1% DMSO control (Nurr1 [3]; [7]): 1.5 |
| C=C(C)[C@]12C[C@@H](C)[C@@]34O[C@](c5ccccc5)(O[C@@H]1C3[C@H](O)[C@@](O)(CO)[C@@H](O)[C@@]1(O)C4C=C(C)[C@@H]1O)O2 (stereo partly drawn) [Formula 7, (2S,3aR,4S,5S,6S,6aR,7S,9bR,10R,11aR)-5-(hydroxymethyl)-8,10-dimethyl-2-phenyl-11a-(prop-1-en-2-yl)-3a,3b,4,5,6,7,9a,10,11,11a-decahydro-6aH-2,9b-epoxyazuleno[5′,4′:3,4]benzo[1,2-d][1,3]dioxole-4,5,6,6a,7-pentaol] | 3410 ± 990 | 2.0 | 1.2 | 2.6 |  |
| C=C(C)[C@@]12O[C@@]3(c4ccccc4)O[C@@H]1C1[C@@H]4O[C@]4(CO)[C@@H](O)[C@]4(O)C(=O)[C@@H](C)CC4[C@@]1(O3)[C@H](C)[C@H]2OC(C)=O (stereo partly drawn) [Formula 6, (2S,3aR,3cS,4aR,5S,5aS,7S,8bR,9R,10R,10aS)-5,5a-dihydroxy-4a-(hydroxymethyl)-7,9-dimethyl-6-oxo-2-phenyl-10a-(prop-1-en-2-yl)dodecahydro-6H-2,8b-epoxyoxireno[2″,3″:6′,7′]azuleno[5′,4′:3,4]benzo[1,2-d][1,3]dioxol-10-yl acetate] | 250 ± 60 |  |  |  | Nurr1 activity (luciferase), multiple of 0.1% DMSO control (Nurr1 [3]; [5]): 2.4; Nurr1 activity (luciferase), multiple of 0.1% DMSO control (Nurr1 [3]; [6]): 1.0; Nurr1 activity (luciferase), multiple of 0.1% DMSO control (Nurr1 [3]; [7]): 1.8 |
| C=C(C)[C@]12C[C@@H](C)[C@@]34OC(c5ccccc5)(O[C@@H]1C3[C@@H]1O[C@]1(CO)[C@@H](O)[C@]13OC(=O)O[C@H]1[C@@H](C)CC43)O2 (stereo partly shown) [Formula 10, genkwanin I] | 7790 ± 910 |  |  |  | Nurr1 activity (luciferase), multiple of 0.1% DMSO control (Nurr1 [2]; High concentration = 100 μM (Table 1)): 1.1; Nurr1 activity (luciferase), multiple of 0.1% DMSO control (Nurr1 [2]; Low concentration = 1 μM (Table 1)): 1.8; Nurr1 activity (luciferase), multiple of 0.1% DMSO control (Nurr1 [2]; Mid concentration = 10 μM (Table 1)): 1.9 |
| C=C(C)[C@]12C[C@@H](C)[C@@]34O[C@](c5ccccc5)(O[C@@H]1C3[C@@H]1O[C@]1(COC(=O)c1ccccc1)[C@@H](O)[C@@]1(O)C4C[C@H](C)[C@@H]1O)O2 (stereo partly drawn) [Formula 4, ((2S,3aR,3cS,4aR,5S,5aR,6S,7S,8bR,9R,10aR)-5,5a,6-trihydroxy-7,9-dimethyl-2-phenyl-10a-(prop-1-en-2-yl)dodecahydro-4aH-2,8b-epoxyoxireno[2″,3″:6′,7′]azuleno[5′,4′:3,4]benzo[1,2-d][1,3]dioxol-4a-yl)methyl benzoate] |  | 1.7 | 1.0 | 1.4 | IC50 ([1]; BV-2, 24 h, read-out: IC50, inhibition of nitric oxide production (Table 4)): 180 ± 40 nM |
| C=C(C)[C@]12C[C@@H](C)[C@@]34O[C@](c5ccccc5)(O[C@@H]1C3[C@@H]1O[C@]1(CO)[C@@H](O)[C@]1(O)C(=O)[C@@H](C)CC41)O2 (stereo partly drawn) [Formula 9, (2S,3aR,3cS,4aR,5S,5aS,7S,8bR,9R,10aR)-5,5a-dihydroxy-4a-(hydroxymethyl)-7,9-dimethyl-2-phenyl-10a-(prop-1-en-2-yl)dodecahydro-6H-2,8b-epoxyoxireno[2″,3″:6′,7′]azuleno[5′,4′:3,4]benzo[1,2-d][1,3]dioxol-6-one] | 1600 ± 370 | 1.5 | 1.7 | 2.4 |  |
| CCN(CC)Cc1cc(Nc2ccnc3cc(Cl)ccc23)ccc1O [AQ, Amodiaquine, reference compound] |  |  |  |  | Nurr1 activity (luciferase), multiple of 0.1% DMSO control (Nurr1 [2]; Low concentration = 5 μM (Table 1)): 0.9; Nurr1 activity (luciferase), multiple of 0.1% DMSO control (Nurr1 [2]; Mid concentration = 20 μM (Table 1)): 1.8 |
| C=C(C)[C@]12C[C@@H](C)[C@@]34O[C@](c5ccccc5)(O[C@@H]1C3[C@@H]1O[C@]1(CO)[C@@H](O)[C@@]1(O)C4C[C@H](C)[C@@H]1O)O2 (stereo partly drawn) [Formula 8, (2S,3aR,3cS,4aR,5S,5aR,6S,7S,8bR,9R,10aR)-4a-(hydroxymethyl)-7,9-dimethyl-2-phenyl-10a-(prop-1-en-2-yl)dodecahydro-5aH-2,8b-epoxyoxireno[2″,3″:6′,7′]azuleno[5′,4′:3,4]benzo[1,2-d][1,3]dioxole-5,5a,6-triol] | 1220 ± 130 | 1.6 | 1.7 | 2.0 | Nurr1 activation (in words) (Nurr1 [3]; no concentration stated): better effect of increasing Nurr1 activity |
| C=C(C)[C@]1(O)C[C@@H](C)[C@@]2(O)C([C@H]1OC(=O)c1ccccc1)[C@H](O)[C@@](O)(COC(=O)c1ccccc1)[C@@H](O)[C@@]1(O)C2C[C@H](C)[C@@H]1O (stereo partly drawn) [Formula 5, ((2S,3S,3aR,4S,5S,6S,7R,8R,10R,10aR)-7-(benzoyloxy)-3,3a,4,5,6,8,10a-heptahydroxy-2,10-dimethyl-8-(prop-1-en-2-yl)tetradecahydrobenzo[e]azulen-5-yl)methyl benzoate] | 4670 ± 3100 | 1.9 | 0.9 | 1.2 |  |
| C=C(C)[C@@]12O[C@@]3(/C=C/C=C/CCCCC)O[C@@H]1[C@@H]1[C@@H]4O[C@]4(CO)[C@@H](O)[C@]4(O)C(=O)C(C)=C[C@H]4[C@@]1(O3)[C@H](C)[C@H]2OC(C)=O [compound 15, prostratin Q] |  |  |  |  | IC50 ([1]; BV-2, 24 h, read-out: IC50, inhibition of nitric oxide production (Table 5)): 3730 nM; Nurr1 activity (Table 3), relative to control treatment (Nurr1 [2]; 0.03 μM): 1.17 ± 0.22; Nurr1 activity (Table 3), relative to control treatment (Nurr1 [2]; 0.1 μM): 1.28 ± 0.35; Nurr1 activity (Table 3), relative to control treatment (Nurr1 [2]; 0.3 μM): **1.59 ± 0.08; Nurr1 activity (Table 3), relative to control treatment (Nurr1 [2]; 1 μM): *2.12 ± 0.37 |
